This note sets out measurements from patent EP2451450B1, “Inhibitors of proline racemase enzymes for the treatment of Trypanosoma spp infections” (Institut Pasteur, priority 2009, dated 2011).

Assay [1] has as its system T.cruzi CL Brener (clone F11-F5). Nature of the assay: Intracellular parasite fate: inhibitor added after 17h infection, 48h, Giemsa scoring. The format is cell-based. Particulars: 48h after infection; for Mean number of parasites/ cell: 3,9 at 0; for % Infected cells: 39,3 at 0; for Number of parasites/100 cells: 153,15 at 0. On the procedure:
Vero cells (from green monkey kidney) were seeded at a density of 15x10^6 cells per 25cm^2 culture flasks or at 5 x10^4 cells/well into LabTek slides. The cultures were maintained in RPMI 1640 medium supplemented with 5% fetal bovine serum and kept at 37°C in an atmosphere of 5% CO2. Cell culture-derived trypomastigotes from T.cruzi CL Brener (clone F11-F5) were isolated from the supernatant of Vero cells, which had been previously infected with bloodstream trypomastigotes. Vero cell cultures were infected for 17h at 37°C with cultured trypomastigotes at a 10:1 parasite/cell ratio in the presence or in the absence of increasing doses of freshly made dilutions (3-30 µM) of (E)-4-oxopent-2-enoic acid (OxoPA) and its derivative (E)-5-bromo-4-oxopent-2-enoic acid (Br-OxoPA), previously dissolved in dimethyl sulfoxide (DMSO). For comparison, cultures were seeded with or without 10-1000 µM specific proline racemase inhibitor pyrrole-2-carboxylic acid (PYC) also diluted in DMSO. To verify if proline racemase inhibitors could also exert an effect on the parasite intracellular cycle after 17 hours of parasite-host cell interaction, all the wells were then rinsed three times to eliminate all extracellular parasites and new medium was added to the cultures that were incubated for up to 48 hours with fresh dilutions of the inhibitor compounds. After the different treatments, cultures were washed with PBS, fixed and stained with Giemsa. The numbers of infected host cells and of parasites per infected cell were then scored in at least 400 host cells in independent experiments, run in duplicate. Results are expressed as the percentage of infected cells, the mean number of parasites per infected cell or by the endocytic index (EI) which represents the percentage of infected cells multiplied by the mean number of parasites per infected cell.
Additional studies were performed to verify whether TcPRAC inhibition by the new compounds would influence the intracellular fate of the parasite. For this purpose, after infection for 17 hours, the host cells were washed and different ligand concentrations (3µM, 10 µM, 30 µM) were added to the medium and the infection was followed for up to 48 hours. As can be observed in Tables 4A, B and C, after 48 hours of culture treatments, there was a dose-dependent decrease in the number of parasites/ 100 cells, as well as in the percentage of infected cells or yet in the mean number of parasites/cell. […] Table 4A : Number of parasites/100 cells
Vero cells (from green monkey kidney) were seeded at a density of 15x10^6 cells per 25cm2 culture flasks or at 5x10^4 cells/well into LabTek slides. The cultures were maintained in RPMI 1640 medium supplemented with 5% fetal bovine serum and kept at 37°C in an atmosphere of 5% CO2. Cell culture-derived trypomastigotes from T.cruzi CL Brener (clone F11-F5) were isolated from the supernatant of Vero cells, which had been previously infected with bloodstream trypomastigotes. LabTek wells were infected for 17h at 37°C with cultured trypomastigotes at a 10:1 parasite/cell ratio. All the wells were then washed to eliminate all extracellular parasites and new medium was added to the cultures containing or not increasing concentrations of freshly made dilutions of 3-30 µM of OxoPA or Br-OxoPA molecules. Cultures were washed after 48h, fixed and stained with Giemsa.

The next assay addresses T1, TcPRAC (Trypanosoma cruzi, UniProt Q4DA80).
T1 construct: implied only by nickel IMAC purification; made in house; host or cells: E. coli BL21 (DE3)
Kind of assay: L-proline racemization assay, formed D-proline determined by DAAOx test. The format is biochemical. Particulars: ligand 10 µM; 10 mM L-proline; 22.4 mg/ml TcPRAC; 5.0mM without ligand. The method, then: Briefly, classical assays of Proline racemization induced by TcPRAC were performed in tubes in a final volume of 1.5 ml and optical rotations measured in a polarimeter 241MC (Perkin Elmer). Parallel assays of Proline racemization were transposed into microplates in a final volume of 100 µl, as follows: serial dilutions of L- Proline ranging from 40 mM to 2.5 mM were prepared in 0.2 M sodium acetate pH 6.0 containing 0.25 mM rTcPRAC and loaded into microplate wells in the presence or in the absence of 0 - 20 µM pyrrole-2 carboxylic acid (PYC) or of similar dilutions of unknown potential inhibitors. Specific control wells were included omitting the TcPRAC and/or the PYC.
Microplates were incubated for 30 minutes at 37° C. Enzyme activity was then inactivated by heating the plate for 15 seconds in a microwave oven at 900 watts after shifting the pH of wells to 8.3 by addition of 6.8 µl of 0.235 M sodium Pyrophosphate. 50 µl of each well were used to test the presence of D-Proline using the DAAOx (D-amino acid oxidase) test described below. L- amino acids may react at very low rate with DAAOx. For instance, DAAOx reacts with L-Proline 300 times slower than D-Proline. Consequently, when assessing amino acid racemization products, standards should consist of serial dilution of equimolar mixtures of specific D- and L-amino acids ranging from 0 to 20 mM (10 mM final) to take into account any interference of possible reactivity with DAAOx of the L- form of amino acids present in the samples.
Solution A consisting of 0.2 M sodium acetate/0.016 M sodium pyrophosphate (Pop) buffer, pH 8.3 was used to prepare the enzyme stock solutions conserved in 50% glycerol, namely: 50 U/ml D-amino acid oxidase from pig kidney (DAAOx, Sigma) and 5000 U/ml Horse Raddish Peroxydase (HRP, Sigma). Stock solutions of L- proline (1M), D- proline (1M) and Pyrrole-2-carboxylic acid (10 mM) (PYC, Sigma) are also prepared in solution A. 10^-1 M FAD (Sigma) stock was prepared in water. Solution B consists in adding to solution A the following reagents at a final concentration in the assay of 1 U/ml for DAAOx, 0.5 mg/ml orthophenylenediamine (OPD, Sigma), 37.5 U/ml HRP and FAD (1.5x10^-5 M FAD). The test is run in 96 wells micro plates (Nunc, Denmark). […] OD 490nm - 650nm is obtained with a microtiter plate reader (Molecular Devices), and compared to those obtained with blank control wells.
The values presented in Table 2A correspond to racemization reactions performed in the absence or in the presence of 10 µM concentration of the different ligands. […] Briefly, 22.4 mg/ml of active TcPRAC was used in the racemization assays of 10 mM L-proline substrate and the concentration of formed D-proline was determined by the DAAOx test, as described in the Material and Methods. […]

A value given as a limit tells only on which side of the number the result lay.

T1 sequence (Q4DA80 32-423): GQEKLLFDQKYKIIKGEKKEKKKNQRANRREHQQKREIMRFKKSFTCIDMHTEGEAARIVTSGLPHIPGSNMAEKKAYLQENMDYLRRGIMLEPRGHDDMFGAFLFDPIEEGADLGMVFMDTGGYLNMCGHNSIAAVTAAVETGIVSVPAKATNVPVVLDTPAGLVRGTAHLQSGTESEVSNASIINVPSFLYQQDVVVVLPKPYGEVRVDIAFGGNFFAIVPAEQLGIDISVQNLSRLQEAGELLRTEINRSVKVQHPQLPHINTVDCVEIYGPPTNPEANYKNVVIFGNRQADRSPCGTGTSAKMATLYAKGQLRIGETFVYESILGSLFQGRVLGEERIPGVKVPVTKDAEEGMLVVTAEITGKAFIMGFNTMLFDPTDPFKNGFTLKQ

Consider `O=C(O)/C=C/C(=O)CBr` [Br-OxoPA, (E)-5-bromo-4-oxopent-2-enoic acid], for which, in assay [1] (3 µM), the “Mean number of parasites/ cell” value is recorded as 3,2, the “% Infected cells” value is given as 55,3% and the “Number of parasites/100 cells” value was 176,5. In addition, in assay [1] (10 µM), the “Mean number of parasites/ cell” value is 3,1, the “% Infected cells” value was 49,8% and the “Number of parasites/100 cells” value was 155,8. In addition, in assay [1] (30 µM), the “Mean number of parasites/ cell” value is on record as 2,3, the “% Infected cells” value is listed as 31,0% and the “Number of parasites/100 cells” value is recorded as 69,4. Also, at TcPRAC, the “Formed D-Proline” value is listed as < 0,3 mM.
For `CC(=O)/C=C/C(=O)O` [OxoPA, (E)-4-oxopent-2-enoic acid], the “Mean number of parasites/ cell” value is 2,9 in assay [1] (3 µM), 3,0 in assay [1] (10 µM) and 2,8 in assay [1] (30 µM). Moreover, the “% Infected cells” value in assay [1] (3 µM) was 41,3%; in assay [1] (10 µM), 41,3%; in assay [1] (30 µM) it was 20,0%. Also, the “Number of parasites/100 cells” value in assay [1] (3 µM) is given as 121,3; in assay [1] (10 µM), 129,4; in assay [1] (30 µM), 56,1. In addition, the “Formed D-Proline” value at TcPRAC is on record as < 0,3 mM.
